Results: ChEMBL document CHEMBL1129395, “Targeting the minor groove of DNA: crystal structures of two complexes between furan derivatives of berenil and the DNA dodecamer d(CGCGAATTCGCG)2” (1996)

Legend:
Type in all cases: functional
Cryptosporidium parvum = assay: percentage of controls is reported as the counted oocysts obtained from alimentary tract tissues using a blinded protocol on Cryptosporidium parvum at dose of 62 umol/kg/day
Pneumocystis carinii [1] = assay: in vivo activity against Pneumocystis carinii at dose of 22.1 umol/kg/day
[2] = In vitro increase in thermal melting of oligomer d(CGCGAATTCGCG)2
Pneumocystis carinii [3] = assay: Percentage of control was reported as the counted cysts in lung tissue using blinded protocol of saline-treated controls on Pneumocystis carinii at dose of 22.1 umol/kg/day

N=C(N)c1ccc(OCCCCCOc2ccc(C(=N)N)cc2)cc1 [PENTAMIDINE]
Of control (Cryptosporidium parvum): 20.8% | Toxicity (Pneumocystis carinii [1]): 2 | ΔTm [2]: 4.8 | Of control (Pneumocystis carinii [3]): 1.47%
